How the values were obtained:
[1] = system: PCP-induced deficits in sensorimotor gating; assay: Prepulse inhibition of startle response; reversal of PCP-induced deficits in sensorimotor gating; conditions: for inhibition of startle response (prepulse inhibition): difference relative to rats receiving PCP alone and/or N-acetylcysteine 30 mg/kg: compound pretreatment 60 min, prepulse 2-15 dB above background, Fisher LSD p<0.05
[2] = system: cocaine-induced reinstatement; assay: Extinction/reinstatement paradigm: cocaine-induced reinstatement of lever pressing; format: in vivo; conditions: rats, cocaine 10 mg/kg IP
[3] = human subjects; cited from earlier work
compulsive drug-seeking = conditions: rodents, preclinical studies; cited from earlier work
cocaine use and craving = conditions: cocaine abusers receiving NAC, clinical data; cited from earlier work
[4] = rats, phencyclidine 1.25 mg/kg SC

Structure (SMILES) | melting point | inhibition of startle response (prepulse inhibition): difference relative to rats receiving PCP alone and/or N-acetylcysteine 30 mg/kg [1, 4] | further results
O=C1CNC(=O)[C@@H](CSC(c2ccccc2)(c2ccccc2)c2ccccc2)N1 (stereo in doubt) [Compound 3c-a, 3-Tritylsulfanylmethyl-piperazine-2,5-dione] | 225 to 227 °C |  | 
O=C1N[C@@H](CSSc2ccccc2)C(=O)N2CCC[C@H]12 [Compound 3b-c, (3R,8aR)-3-((phenyldisulfanyl)methyl)hexahydropyrrolo[1,2-a]pyrazine-1,4-dione] | 120 °C |  | 
O=C1CNC(=O)[C@H](CS)N1 [Compound 4a, 2,5-piperazinedione, 3-(mercaptomethyl)-] | 258 °C | significant difference | 
CC(C)[C@H]1NC(=O)[C@H](CS)NC1=O [Compound 4d, (6R)-3-isopropyl-6-(mercaptomethyl)piperazine-2,5-dione] | > 275 °C |  | 
CC(C)(C)SC[C@H]1NC(=O)[C@H](CS)NC1=O [Compound 4e, (6R)-3-(tert-butylthiomethyl)-6-(mercaptomethyl)piperazine-2,5-dione] | > 280 °C (dec.) |  | 
CCOC1=N[C@@H](CS)C(OCC)=NC1 [Compound 5a, (3,6-Diethoxy-2,5-dihydro-,pyrazin-2-yl)-methanethiol] |  | significant difference | 
CCOC1=N[C@@H](CSSC[C@H]2N=C(OCC)CN=C2OCC)C(OCC)=NC1 [Compound 5a-D, Bis[(3,6-Diethoxy-2,5-dihy-dro-pyrazin-2-yl)-methanethiol]] |  | significant difference | cocaine-induced reinstatement ([2]; 1 mg/kg (p.o.), comparable to 30 mg/kg NAC): sufficient to block cocaine-induced reinstatement
CCOC1=N[C@@H](CSCC)C(=O)N[C@@H]1Cc1ccccc1 [Compound 6b-b, (3R,6R)-6-Benzyl-5-ethoxy-3-(ethylthiomethyl)-1,6-dihydropyrazin-2(3H)-one] | 118 °C |  | 
O=C1CNC(=O)[C@H](CSSC[C@@H]2NC(=O)CNC2=O)N1 [Compound 7a, Bis[2,5-Piperazinedione, 3-(mercaptomethyl)-]] |  | significant difference | 
O=C1CNC(=O)[C@H](CSSC[C@H]2NC(=O)[C@H](Cc3ccccc3)NC2=O)N1 [Compound 11-a-b] |  | significant difference | 
CC(C)C1NC(=O)[C@@H](CSSC[C@@H]2NC(=O)CNC2=O)NC1=O (stereo partly shown) [Compound 11-a-d] |  | significant difference | 
CC(=O)N[C@@H](CS)C(=O)O [N-acetyl cysteine] |  |  | phencyclidine-induced deficits in sensorimotor gating ([1]; direct delivery into the brain (prefrontal cortex)): reverses phencyclidine-induced deficits in sensorimotor gating; sensorimotor gating (prepulse inhibition) after PCP ([1]; rats, N-acetyl cysteine 30 mg/kg po, pretreated 60 min, phencyclidine 1.25 mg/kg SC): failed to exhibit sensorimotor gating; cocaine-induced reinstatement ([2]; 30 mg/kg IP, responding 120 min): significant reduction; cocaine-induced reinstatement ([2]; 60 mg/kg IP, responding 120 min): significant reduction; cocaine-induced reinstatement ([2]; given orally): less effective; safety/tolerability profile [3]: favorable safety/tolerability profile; compulsive drug-seeking (compulsive drug-seeking): effective in blocking compulsive drug-seeking; cocaine use and craving (cocaine use and craving): reduction in cocaine use and craving
c1ccc(C2(N3CCCCC3)CCCCC2)cc1 [PCP, phencyclidine, reference compound] |  |  | effect of PCP on prepulse inhibition ([1]; rats, pcp 0-2.0 mg/kg, FIG. 4): disrupt prepulse inhibition
